Data: patent US20110009342A1, “USES OF PDCD5 POLYPEPTIDE FOR TUMOR CHEMOTHERAPY AND ORGAN PROTECTION” (priority 2008, published 2011)
Marks after values point to notes of the source that are not given here.

Tests used:
Raji cells [1] = test: colony-forming ability (CFA) assay, ADM; assay type: cell-based; details: ADM 5 ng/mL alone; 14 days
Experimental: Analysis for colony forming ability (CFA): U937 cells (ATCC), in the logarithmic phase, were maintained in RPMI 1640 medium supplemented with 20% FBS and 0.4% methyl cellulose (Sigma) by the semi-solid colony culture method and were adjusted to a density of 5×10^3 cells/mL. The cells were divided into control groups and test groups, and each group was assayed in triple wells. U937 cells in the control groups were treated with DNR alone, with the final concentrations of 0 ng/mL and 0.5 ng/mL. U937 cells in the test group were treated with DNR of various concentrations combined with PDCD5 of various concentrations, while the final concentrations of PDCD5 were 0 μg/mL, 0.625 μg/mL, 1.25 μg/mL, and 2.5 μg/mL, respectively. After incubation for 14 days in a 37° C., 5% CO2 and saturatedly humidified incubator, a colony with more than 30 cells was counted by an inverted microscope in order to analyze colony forming ability of each group. […]
Methods: Colony-forming ability (CFA) assay: Raji cells of logarithmic growth phase were cultured, and the method was the same as that in Example 8. […] The numbers of colonies (containing≧30 cells) were counted by inverted microscope to observe the CFA, which is indicated by the ratio of average number of colony formation in each of the test groups versus that of the untreated control group.

K562 cells = test: Annexin-V apoptosis by flow cytometry, Ara-C; assay type: cell-based; details: Ara-C 0.1 μg/mL; PDCD5 60 μg/mL where combined; 48 hours
Experimental: Methods: Cell staining with FITC/Annexin-V and cell apoptosis detection in vitro by flow cytometry: K562 cells (ATCC) were maintained in RPMI 1640 (Life Technologies, USA) supplemented with 10% FBS (Hyclone, USA), and were plated in 24-well culture dishes to a density of 2×10^5 cells per well. rhPDCD5 protein was added in each well with a final concentration of 15 μg/mL, 30 μg/mL and 60 μg/mL, respectively. Chemotherapeutic drug Ara-C (Pharmacia, Italia) was then added with a final concentration of 0.1 μg/mL and RPMI 1640 medium supplemented with 10% FBS was added to bring the culture system to 1 mL. After incubation for 48 hours, the cells were stained with Annexin-V/PI (Biosea) and then were analyzed for apoptosis by flow cytometry.

U937 cells [2] = test: cell apoptosis assay, DNR; assay type: cell-based; details: PDCD5 5 μg/mL where combined, 24 hours
Experimental: Methods: Cell apoptosis assay: U937 cells (ATCC), in the logarithmic phase, were maintained in RPMI 1640 (Life Technologies, USA) supplemented with 10% FBS (Hyclone, USA), and were adjusted to a density of 2×10^5 cells/mL and then were divided into control groups and test groups. U937 cells in the control groups were treated with DNR (Pharmacia Italia SPA) alone, with the final concentrations of 0 μg/mL, 0.05 μg/mL, and 0.1 μg/mL. U937 cells in the test groups were treated with DNR of various concentrations combined with PDCD5 of various concentrations, with the final concentrations of PDCD5 being 0 μg/mL, 2.5 μg/mL, and 5 μg/mL, respectively. After being incubated for 24 hours in a 37° C., 5% CO2 and saturatedly humidified incubator, the cells were stained with Annexin-V/PI (Biosea) and then were analyzed for apoptosis with a FACSCalibur flow cytometer.

U937 cells [3] = test: colony forming ability (CFA), DNR; assay type: cell-based; details: DNR 0.5 ng/mL alone; 14 days
Experimental: (§1) Analysis for colony forming ability (CFA): U937 cells (ATCC), in the logarithmic phase, were maintained in RPMI 1640 medium supplemented with 20% FBS and 0.4% methyl cellulose (Sigma) by the semi-solid colony culture method and were adjusted to a density of 5×10^3 cells/mL. The cells were divided into control groups and test groups, and each group was assayed in triple wells. U937 cells in the control groups were treated with DNR alone, with the final concentrations of 0 ng/mL and 0.5 ng/mL. U937 cells in the test group were treated with DNR of various concentrations combined with PDCD5 of various concentrations, while the final concentrations of PDCD5 were 0 μg/mL, 0.625 μg/mL, 1.25 μg/mL, and 2.5 μg/mL, respectively. After incubation for 14 days in a 37° C., 5% CO2 and saturatedly humidified incubator, a colony with more than 30 cells was counted by an inverted microscope in order to analyze colony forming ability of each group. The colony forming ability was shown as the ratio of average number of colony in each group versus that of the untreated control group in which the final concentrations of DNR and PDCD5 were 0 μg/mL.

Raji cells [4] = test: FITC/Annexin-V apoptosis by flow cytometry, DNR; assay type: cell-based; details: DNR 0.05 μg/mL; PDCD5 5 μg/mL where combined; 24 h
Experimental: Methods: Raji cells were cultured in RPMI 1640 medium (Life Technologies, USA) supplemented with 10% Fetal Bovine Serum (FBS, Hyclone, USA). The cells were seeded in 24-well plates with 2×10^5 cells per well. rhPDCD5 was added to each well and the final concentrations were 0 μg/mL, 2.5 μg/mL and 5 μg/mL, respectively. Subsequently, DNR was added and the final concentrations were 0 μg/mL and 0.05 μg/mL, and RPMI 1640 medium supplemented with 10% FBS was added to ensure the system was brought to 1 mL. After 24 h incubation, the cells were stained with FITC/Annexin-V (Beijing Biosea Biotechnology Co., Ltd.) and the apoptosis was detected by flow cytometry.

Jurkat cells = test: FITC/Annexin-V apoptosis by flow cytometry, DNR; assay type: cell-based; details: DNR 0.05 μg/mL; PDCD5 5 μg/mL where combined; 24 h
Experimental: Methods: The density of Jurkat cells were adjusted by RPMI 1640 medium (Life Technologies, USA) supplemented with 10% Fetal Bovine Serum (FBS, Hyclone, USA). […] Subsequently, DNR (Pharmacia Italia S.P.A) was added with its final concentration of 0.05 μg/mL, and RPMI 1640 medium supplemented with 10% FBS was added to ensure the system to be 1 mL. After 24h incubation, the sample was stained with FITC/Annexin-V (Beijing Biosea Biotechnology CO., LTD) and detected for apoptosis by flow cytometry.

U937 xenografts = test: U937 nude mice xenograft model, DNR; assay type: in vivo, BALB/c nude mice
Experimental: Methods: U937 nude mice xenograft model: BALB/c nude mice (5-6 weeks of age) were pretreated with cyclophosphamide (100 mg/kg, injected intraperitoneally once a day for two consecutive days). On day 3, 1×10^7 (100 μl) of U937 cells were subcutaneously (s.c.) injected into a single flank of each of the mice. The treatments began on day 7 after inoculation when the average tumor diameter reached about 5 mm. The mice were divided randomly into four groups (n=6, i.e., six mice in each group) and treated with normal saline (NS), rhPDCD5 (40 μg, locally injected into the tumor), DNR (40 μg, intraperitoneal) or DNR (40 μg) plus rhPDCD5 (40 μg), once a day for 8 consecutive days.
Tumor volume (V) was determined every other day by vernier caliper measurements and calculated based on the equation of V=ab^2/2, where “a” refers to a long tumor diameter and “b” refers to a short diameter, then tumor volume growth curve was drawn. The percentage of reductions in tumor growth was calculated using the formula: [1-(Tf-Ti)/(Cf-Ci)]×100, where Tf and Ti are the final and initial mean tumor volumes, respectively, of the group receiving a specific treatment, and Cf and Ci are the final and initial mean tumor volumes, respectively, of the NS control group. After the treatment, tumors were collected and weighed and tissues were sectioned and processed by histological hematoxylin and eosin (H&E) staining. Results were statistically analyzed using SPSS 13.0. The measurements were expressed as the mean±standard deviation. Data were analyzed by the single-factor ANOVA and Student's t test and are presented as mean±standard deviation (SD). P<0.05 was considered statistically significant.

mouse livers = test: HE staining of liver paraffin sections of treated K562 xenograft mice; assay type: in vivo, BALB/c nu/nu mice; details: no PDCD5; Imatinib 1.2 mg oral or IDR 25 μg i.p.; n=6
Experimental: (§2) Methods: BALB/c nu/nu female mice (6-8 weeks of age) were injected intraperitoneally with cyclophosphamide (CTX) (Jiangsu Hengrui Medicine Co., Ltd.), 2 mg/day per mouse for two days. One day after the second cyclophosphamide injection, 1.5×10^7 of K562 cells were injected subcutaneously into the single armpit of each of the mice. The mice bearing K562 cell xenografts were divided randomly into nine groups (n=6, i.e., six mice in each group) and each of the mice was i.p. treated, respectively, with normal saline, PDCD5, IDR (Sigma Corporation), and IDR plus PDCD5. […] At the end of the experiment, mice were killed. The mice were the same batch of that of Example 6. The excised liver of mice after treatment were fixed in 10% neutrally buffered formalin and then embedded in paraffin after dehydration. The paraffin embedding was cut and paraffin sections after HE staining were used to observe the necrosis of experimental mouse livers. Meanwhile, paraffin sections after Tunel (Roche Inc.) staining were used to observe the apoptosis of experimental mouse livers, and then the number of apoptotic cells was counted in five high-power microscope field for statistical analysis.

mice hearts = test: HE staining of heart paraffin sections of treated K562 xenograft mice; assay type: in vivo, BALB/c nu/nu mice; details: no PDCD5; Imatinib 1.2 mg oral or IDR 25 μg i.p.; n=6
Experimental: as §2, with “hearts” for “liver”, “myocardial congestion, hemorrhage, and myofiber degeneration” for “necrosis”, “heart” for “experimental mouse livers. Meanwhile, paraffin sections after Tunel (Roche Inc.) staining were used to observe the apoptosis of experimental mouse livers, and then the number of apoptotic cells was counted”, “mice.” for “five high-power microscope field for statistical analysis.”

HL-60 cells = test: cell apoptosis assay, As2O3; assay type: cell-based; details: for rate of apoptosis: PDCD5 20 μg/mL where combined, 24 h
Experimental: Methods: Cell apoptosis assay: HL-60 cells (ATCC) of logarithmic growth phase were cultured and the density of cells was 2×10^5/mL. The cells were divided into control and test groups. In the control groups, the HL60 cells were treated only with As2O3 (Harbin Yida Pharmaceutical Co., Ltd.), and the final concentration of As2O3 were 0 μg/mL, 0.25 μg/mL and 0.5 μg/mL, respectively. In the test groups, the HL60 cells were treated with As2O3 in the various concentrations combined with PDCD5 in various concentrations, the final concentrations of PDCD5 being 0 μg/mL, 5 μg/mL, 10 μg/mL and 20 μg/mL, respectively. The cells were incubated in a 37° C., 5% CO2 and saturatedly humidified incubator for 24 h, and subsequently were stained with Annexin-V/PI and detected for apoptosis by flow cytometer.

HL60 cells = test: colony-forming ability (CFA) assay, As2O3; assay type: cell-based; details: As2O3 0.25 μg/mL alone; 14 days
Experimental: as §1
Colony-forming ability (CFA) assay: HL60 cells of logarithmic growth phase were cultured by a method identical to that in Example 8. The cells were divided into control and test groups (each with 3 wells): In the control groups, the HL60 cells were treated only with arsenic trioxide and the final concentration of which were 0 μg/mL and 0.25 μg/mL, respectively; in the test groups, the HL60 cells were treated with different concentrations of As2O3, which was combined with different concentrations of PDCD5, the final concentrations of PDCD5 were 0 μg/mL, 5 μg/mL, 10 μg/mL and 20 μg/mL, respectively. Cultures were incubated in a 37° C., 5% CO2 and saturatedly humidified incubator for 14 days. The numbers of colonies (containing≧30 cells) were counted on day 14 by inverted microscope. The colony-forming ability was observed as the ratio of the number of average colony formation in the test groups versus that in the untreated control group. […]

COc1cccc2c1C(=O)c1c(O)c3c(c(O)c1C2=O)C[C@@](O)(C(=O)CO)C[C@@H]3O[C@H]1C[C@H](N)[C@H](O)[C@H](C)O1 [ADM, adriamycin]
CFA (ratio to untreated control) (Raji cells [1]): 32%

Nc1ccn([C@@H]2O[C@H](CO)[C@@H](O)[C@@H]2O)c(=O)n1 [Ara-C, arabinoside]
apoptosis rate (K562 cells): 34.87%

COc1cccc2c1C(=O)c1c(O)c3c(c(O)c1C2=O)C[C@@](O)(C(C)=O)C[C@@H]3O[C@H]1C[C@H](N)[C@H](O)[C@H](C)O1 [DNR, Daunorubicin]
rate of apoptosis (U937 cells [2]; high-dose DNR 0.1 μg/mL): 23.01% | rate of apoptosis (U937 cells [2]; low-dose DNR 0.05 μg/mL): 21.23% | CFA (ratio to untreated control) (U937 cells [3]): 79% | rate of apoptosis (Raji cells [4]): 17.46% | rate of apoptosis (Jurkat cells): 27.01% | average tumor weight (U937 xenografts; after the treatment, DNR 40 μg, PDCD5 40 μg where combined): 0.45 ± 0.15 g | inhibition of tumor growth (percentage of inhibition on tumor sizes vs control group) (U937 xenografts; day 15, DNR 40 μg, rhPDCD5 40 μg where combined): 31.97% | Average size of tumors (mean ± SD) (U937 xenografts; fifteenth day, rhPDCD5 40 μg into the tumor, DNR 40 μg intraperitoneal, once a day for 8 days): 410.27 ± 154.93* mm^3

Cc1ccc(NC(=O)c2ccc(CN3CCN(C)CC3)cc2)cc1Nc1nccc(-c2cccnc2)n1 [Imatinib]
Sinusoidal expansion, congestive hemorrhage and necrosis of liver cells surrounding sinusoid: mice graded + (mouse livers): 2 number of mice | Sinusoidal expansion, congestive hemorrhage and necrosis of liver cells surrounding sinusoid: mice graded ++ (mouse livers): 0 number of mice | Sinusoidal expansion, congestive hemorrhage and necrosis of liver cells surrounding sinusoid: mice graded +/− (mouse livers): 0 number of mice | Sinusoidal expansion, congestive hemorrhage and necrosis of liver cells surrounding sinusoid: mice graded − (mouse livers): 4 number of mice | Myocardial hemorrhage and congestion: mice graded + (mice hearts): 1 number of mice | Myocardial hemorrhage and congestion: mice graded ++ (mice hearts): 1 number of mice | Myocardial hemorrhage and congestion: mice graded − (mice hearts): 4 number of mice | Myofiber degeneration: mice graded + (mice hearts): 0 number of mice | Myofiber degeneration: mice graded − (mice hearts): 6 number of mice

arsenious acid [As2O3]
enhancement of induced apoptosis (HL-60 cells): can enhance PDCD5-induced apoptosis | rate of apoptosis (HL-60 cells; high-dose As2O3 0.5 μg/mL): 78.02% | rate of apoptosis (HL-60 cells; low-dose As2O3 0.25 μg/mL): 21.23% | CFA (ratio to untreated control) (HL60 cells): 52%
